According to PMC7883289, “Synthesis of Paeonol-Ozagrel Conjugate: Structure Characterization and In Vivo Anti-Ischemic Stroke potential” (Frontiers in Pharmacology, 2021):

Tests used:
TXA2 = test: ELISA assay for TXA2 in brain tissue and blood of MCAO rats; format: in vivo; conditions: paeonol and OS 3 mg/kg, POC 4.5 mg/kg iv, n = 6
Method: Male Sprague Dawley (SD) rats weighing among 220 g-230 g (Anhui Medicine University, Hefei, China; certificate number: SCXK20190,003) were housed under ad libitum access to food and water with a standardized light-dark cycle condition (25 ± 2°C, 12-hour light/dark cycle). All the experimental protocols were performed in accordance with the Institutional Animal Care and Use Committee of Anhui University of Chinese Medicine (Animal ethics number: AHUCM-rats-2019001). We used the minimal number of study animals (n = 6 rats in each group for different experiments). The rats were fastened upon the operating table in a supine position after being anesthetized with 2% pelltobarbitalum natricum (50 mg/kg). After disinfection of the skin within close proximity of the operative region, the right common carotid artery (CCA), external carotid artery (ECA) and internal carotid artery (ICA) were exposed with blunt dissection. The CCA was temporarily ligated and the ECA were permanently ligated ([Liu et al., 2016]). […] According to the manufacturer's instructions, the levels of inflammatory cytokines (IL - 6, IL-1β, TNF-α; R&D Systems, Minneapolis, MN, United States) and TXA2 (Wuhan ColorfulGene Biological Technology Co., LTD) were detected using the commercial ELISA kits. The resultant colored products were measured the absorbance at 450 nm. […]

SOD and MDA = test: Oxidative stress biomarker assay (SOD, MDA) in brain tissue of MCAO rats; format: in vivo; conditions: whole brain homogenate, POC 4.5 mg/kg iv compared with the paeonol and OS groups (3 mg/kg iv), n = 6
Method: Male Sprague Dawley (SD) rats weighing among 220 g–230 g (Anhui Medicine University, Hefei, China; certificate number: SCXK20190,003) were housed under ad libitum access to food and water with a standardized light-dark cycle condition (25 ± 2°C, 12–hour light/dark cycle). All the experimental protocols were performed in accordance with the Institutional Animal Care and Use Committee of Anhui University of Chinese Medicine (Animal ethics number: AHUCM–rats–2019001). We used the minimal number of study animals (n = 6 rats in each group for different experiments). The rats were fastened upon the operating table in a supine position after being anesthetized with 2% pelltobarbitalum natricum (50 mg/kg). After disinfection of the skin within close proximity of the operative region, the right common carotid artery (CCA), external carotid artery (ECA) and internal carotid artery (ICA) were exposed with blunt dissection. The CCA was temporarily ligated and the ECA were permanently ligated ([Liu et al., 2016]). A nylon monofilament surgical thread was introduced into the ICA to block the MCA when the blunted distal end met resistance. After 2 h of occlusion, reperfusion was accomplished to restore blood supply to the MCA area by removing the filament ([Li et al., 2009]; [Zhai et al., 2017]). […] A microplate reader was used to measure the absorbance at 450 and 532 nm with a UV spectrophotometer. […]

PC12 cells = test: Cell viability, CCK8 method; format: cell-based, Rat; conditions: 24 h, CCK8, tested 37.5 to 1,200.0 μM
Method: Rat PC12 pheochromocytoma cells were obtained from the Cell Resource Center, Peking Union Medical College. PC12 cells were grown as monolayers in tissue culture flasks at 37°C under a humidified, 5% CO2 atmosphere in the high–glucose Dulbecco’s Modified Eagle Medium (DMEM) medium.
The CCK8 (MedChemExpress, United States) method was used to estimate the cytotoxic effects of POC. Before treatment, the cells were seeded onto 96-well culture plates at an appropriate density according to the experimental protocol. After 24 h, the medium was replaced with fresh medium containing varying concentrations (37.5, 75.0, 150.0, 300.0, 600.0, 1,200.0 μM) from the POC serial dilutions. And PC12 was allowed to grow for another 24 h. After incubation, the cell viability was evaluated using the CCK8 assay. The absorbance was read at 450 nm on a microplate reader. These cell viability experiments were made in triplicate.

With `COc1ccc(C(C)=O)c(OC(=O)C=Cc2ccc(Cn3ccnc3)cc2)c1` [POC, paeonol-ozagrel conjugate] the “levels of TXA2 in blood (plasma)” value (TXA2; blood/plasma) was “decreasing levels”, the “levels of TXA2 in brain” value (TXA2; brain tissue) was “decreasing levels” and the “MDA levels in brain tissue” value (SOD and MDA) was “lowest MDA levels”. The “SOD levels in brain tissue” value (SOD and MDA) was “highest SOD levels” and the “concentration with no viability loss / no toxic effect” value (PC12 cells) was “less than 75 μM”.
